Results: the supplement of paper PMC10307832

Key:
Test in all cases: relative viability (nuclei count vs DMSO), 5 days (fraction); higher = more cells survive
GW-2580 + OSI-027 = compound: COC1=CC=C(C=C1)COC2=C(C=C(C=C2)CC3=CN=C(N=C3N)N)OC [GW-2580] + COc1cccc2cc(-c3nc([C@H]4CC[C@H](C(=O)O)CC4)n4ncnc(N)c34)[nH]c12 [OSI-027] (partner 0.5 µM)
Outline: (§1)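 A single step with final 0.05% Triton X-100, 1% formaldehyde and 1 ug/ml Hoechst fixed the cells and stained nuclei 5 days after treatment. Lung cancer cell lines in 1536-well plates had been treated by pin tool the day after seeding with one drug alone or a fixed anchor-drug dose plus five library-drug doses (not always all listed) in √10 steps, and nuclei were counted on 4× images. Relative viability is the ratio of nuclei in treated wells to nuclei in vehicle wells, taken as the median of duplicate plates.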

GW-2580 + Decitabine = compound: COC1=CC=C(C=C1)COC2=C(C=C(C=C2)CC3=CN=C(N=C3N)N)OC [GW-2580] + Nc1ncn([C@H]2C[C@H](O)[C@@H](CO)O2)c(=O)n1 [Decitabine] (partner 2 µM)
Outline: as §1

Fedratinib + OSI-027 = compound: Cc1cnc(Nc2ccc(OCCN3CCCC3)cc2)nc1Nc1cccc(S(=O)(=O)NC(C)(C)C)c1 [Fedratinib] + COc1cccc2cc(-c3nc([C@H]4CC[C@H](C(=O)O)CC4)n4ncnc(N)c34)[nH]c12 [OSI-027] (partner 0.5 µM)
Outline: as §1

Fedratinib + Crizotinib = compound: Cc1cnc(Nc2ccc(OCCN3CCCC3)cc2)nc1Nc1cccc(S(=O)(=O)NC(C)(C)C)c1 [Fedratinib] + C[C@@H](Oc1cc(-c2cnn(C3CCNCC3)c2)cnc1N)c1c(Cl)ccc(F)c1Cl [Crizotinib] (partner 1 µM)
Outline: as §1

Fedratinib + Pemetrexed = compound: Cc1cnc(Nc2ccc(OCCN3CCCC3)cc2)nc1Nc1cccc(S(=O)(=O)NC(C)(C)C)c1 [Fedratinib] + Nc1nc2[nH]cc(CCc3ccc(C(=O)N[C@@H](CCC(=O)O)C(=O)O)cc3)c2c(=O)[nH]1 [Pemetrexed] (partner 0.2 µM)
Outline: as §1

Fedratinib + Olaparib = compound: Cc1cnc(Nc2ccc(OCCN3CCCC3)cc2)nc1Nc1cccc(S(=O)(=O)NC(C)(C)C)c1 [Fedratinib] + O=C(c1cc(Cc2n[nH]c(=O)c3ccccc23)ccc1F)N1CCN(C(=O)C2CC2)CC1 [Olaparib] (partner 8 µM)
Outline: as §1

Row | Cell Line | relative viability (GW-2580 + OSI-027; first compound 0.08 µM) | relative viability (GW-2580 + OSI-027; first compound 0.8 µM) | relative viability (GW-2580 + OSI-027; first compound 2.53 µM) | relative viability (GW-2580 + OSI-027; first compound 8 µM) | relative viability (GW-2580 + Decitabine; first compound 0.08 µM) | relative viability (GW-2580 + Decitabine; first compound 0.8 µM) | relative viability (GW-2580 + Decitabine; first compound 2.53 µM) | relative viability (GW-2580 + Decitabine; first compound 8 µM) | relative viability (Fedratinib + OSI-027; first compound 0.1 µM) | relative viability (Fedratinib + OSI-027; first compound 0.3162 µM) | relative viability (Fedratinib + OSI-027; first compound 1 µM) | relative viability (Fedratinib + Crizotinib; first compound 0.1 µM) | relative viability (Fedratinib + Crizotinib; first compound 0.3162 µM) | relative viability (Fedratinib + Crizotinib; first compound 1 µM) | relative viability (Fedratinib + Pemetrexed; first compound 0.1 µM) | relative viability (Fedratinib + Pemetrexed; first compound 0.3162 µM) | relative viability (Fedratinib + Pemetrexed; first compound 1 µM) | relative viability (Fedratinib + Olaparib; first compound 0.1 µM) | relative viability (Fedratinib + Olaparib; first compound 0.3162 µM) | relative viability (Fedratinib + Olaparib; first compound 1 µM)
1 | LU99A | 0.294 | 0.263 | 0.306 | 0.34 | 0.924 | 1.05 | 0.812 | 0.952 | 0.254 | 0.328 | 0.272 | 0.427 | 0.618 | 0.509 | 0.181 | 0.174 | 0.197 | 0.262 | 0.264 | 0.231
2 | HCC-827 | 0.848 | 0.906 | 0.278 | 0.687 | 0.275 | 0.317 | 0.299 | 0.319 | 0.817 | 0.812 | 0.915 | 0.985 | 0.963 | 0.953 | 0.233 | 0.271 | 0.256 | 0.606 | 0.528 | 0.749
3 | LK-2 | 0.208 | 0.19 | 0.208 | 0.189 | 0.227 | 0.3 | 0.253 | 0.334 | 0.157 | 0.184 | 0.16 | – | 0.187 | 0.214 | 0.171 | 0.207 | 0.233 | 0.611 | 0.624 | 0.698
4 | HCC-366 | 0.944 | 1.13 | 0.894 | 0.818 | 0.328 | 0.375 | 0.352 | 0.449 | 0.802 | 0.886 | 0.849 | 0.21 | 0.5 | 0.416 | 0.154 | 0.168 | 0.142 | 0.525 | 0.325 | 0.345
5 | BEN | 0.281 | 0.273 | 0.267 | 0.31 | 0.703 | 0.79 | 0.619 | 0.677 | 0.267 | 0.297 | 0.27 | 0.716 | 0.91 | 0.784 | 0.653 | 0.755 | 0.669 | 1.07 | 1.01 | 0.972
6 | NCI-H23 | 0.561 | 0.644 | 0.599 | 0.347 | 0.324 | 0.334 | 0.308 | 0.283 | 0.579 | 0.654 | 0.525 | 0.305 | 0.475 | 0.41 | 0.681 | 0.59 | 0.497 | 0.286 | 0.3 | 0.289
7 | 201T | 0.647 | 0.994 | 1.09 | 0.797 | 0.895 | 0.914 | 0.873 | 0.887 | 0.698 | 0.613 | 0.588 | 1.01 | 1.04 | 0.99 | 0.332 | 0.336 | 0.314 | 0.846 | 0.867 | 0.794
8 | NCI-H2170 | 0.757 | 0.745 | 0.735 | 0.748 | 0.521 | 0.464 | 0.47 | 0.467 | 0.688 | 0.723 | 0.596 | 1.12 | 1.07 | 0.871 | 0.284 | 0.27 | 0.253 | 0.63 | 0.581 | 0.562
9 | NCI-H460 | 0.996 | 0.864 | 0.679 | 0.656 | 0.577 | 0.574 | 0.461 | 0.461 | 0.642 | 0.645 | 0.507 | 0.47 | 0.767 | 0.812 | 0.0603 | 0.0665 | 0.0598 | 0.483 | 0.395 | 0.415
10 | NCI-H661 | 0.739 | 0.754 | 0.644 | 0.543 | 0.597 | 0.542 | 0.516 | 0.546 | 0.729 | 0.735 | 0.55 | 0.964 | 0.948 | 1.04 | 0.939 | 0.928 | 0.883 | 0.713 | 0.77 | 0.748
11 | HCC-15 | 0.743 | 0.787 | 0.596 | 0.656 | 0.631 | 0.818 | 0.636 | 0.69 | 0.499 | 0.705 | 0.576 | 0.839 | 0.762 | 0.71 | 0.212 | 0.225 | 0.202 | 0.732 | 0.676 | 0.806
12 | LCLC-103H | 0.482 | 0.434 | 0.482 | 0.458 | 0.752 | 0.724 | 0.661 | 0.706 | 0.415 | 0.454 | 0.404 | 1.07 | 0.922 | 1.01 | 0.487 | 0.521 | 0.469 | 0.819 | 0.753 | 0.773
13 | NCI-H441 | 0.653 | 0.634 | 0.586 | 0.77 | 0.207 | 0.198 | 0.243 | 0.222 | 0.443 | 0.625 | 0.511 | 0.65 | 0.623 | 0.619 | 0.267 | 0.242 | 0.232 | 0.607 | 0.481 | 0.525
14 | EPLC-272H | 0.284 | 0.308 | – | 0.273 | 0.391 | 0.366 | – | 0.368 | 0.276 | 0.289 | 0.114 | 1 | 0.87 | 0.757 | 0.389 | 0.272 | 0.343 | 0.601 | 0.847 | 0.459
